Values of other authors, collected in US20130028992A1, “Herbal-Based Solution for Treating Symptoms of Nasal Conditions” (priority 2011, published 2013).

Tests used:
platelet aggregation = conditions: case of a heart attack
[1] = tested on: 25 strains of yeast, bacteria and mold

SMILES	time required to take effect (platelet aggregation)	antimicrobial effect of vapor [1]
CC(=O)Oc1ccccc1C(=O)O [aspirin]	thirty	–
C=CCN=C=S [allyl isothiocyanate]	–	can combat 25 strains of yeast, bacteria and mold to varying degrees
